Measurements published in ChEMBL document CHEMBL5058564, “EUbOPEN Chemogenomics Library 2 (Incucyte)” (2022).

Legend:
Format in all cases: toxicity, cell-based
[1] = tested on: Fibroblast; test: Incucyte cell viability with human fibroblast; settings: 10 µM, compound concentration 10 uM
[2] = tested on: U2OS; test: Incucyte cell viability with U2OS; settings: human, 10 µM, compound concentration 10 uM
[3] = tested on: HEK-293T; test: Incucyte cell viability with HEK293T; settings: human, 10 µM, compound concentration 10 uM
[4] = 0 h, replicate number 1, timepoint 0 hours
[5] = 6 h, replicate number 2, timepoint 6 hours
[6] = 12 h, replicate number 2, timepoint 12 hours
[7] = 18 h, replicate number 2, timepoint 18 hours
[8] = 24 h, replicate number 2, timepoint 24 hours
[9] = 0 h, replicate number 2, timepoint 0 hours
[10] = 6 h, replicate number 1, timepoint 6 hours
[11] = 12 h, replicate number 1, timepoint 12 hours
[12] = 18 h, replicate number 1, timepoint 18 hours
[13] = 24 h, replicate number 1, timepoint 24 hours
Note: unitless GR value; below 1 slowed growth and below 0 cell loss.

Compound | Growth Rate [1, 4] | Growth Rate [1, 5] | Growth Rate [1, 6] | Growth Rate [2, 4] | Growth Rate [2, 9] | Growth Rate [2, 10] | Growth Rate [2, 11] | Growth Rate [2, 12] | Growth Rate [2, 8] | Growth Rate [3, 5] | Growth Rate [3, 6] | Growth Rate [1, 10] | Growth Rate [1, 11] | Growth Rate [1, 13] | Growth Rate [2, 7] | Growth Rate [3, 10] | Growth Rate [3, 11] | Growth Rate [3, 12] | Growth Rate [3, 13] | Growth Rate [3, 8] | further results
O=C(O)C(F)(F)F.O=C1NC(=O)/C(=C/c2c[nH]c(=O)c(-c3ccc(N4CCNCC4)nc3)c2)S1 | 0.44 | 0.04 | 0.66 | -0.39 | -1 | 0.45 | 0.51 | 1 | 0.94 | 0.18 | 0.7 |  |  |  |  |  |  |  |  |  | Growth Rate [1, 7]: 0.64; Growth Rate [1, 8]: 0.71; Growth Rate [3, 4]: 0.87; Growth Rate [3, 9]: 0.65; Growth Rate [3, 7]: 0.92
O=C1NCc2ccc3c(-c4cccc(Cl)c4)c[nH]c3c21 |  | -0.83 | -0.4 | -0.28 | 0.01 | 0.17 | 0.07 | 0.03 | -0.28 | -0.56 | -0.09 | -0.99 | -0.86 | -0.39 | -0.24 | -0.52 | -0.31 | -0.21 | -0.19 | -0.07 | Growth Rate [1, 12]: -0.65; Growth Rate [1, 7]: -0.18; Growth Rate [1, 8]: 0.01; Growth Rate [2, 5]: -0.08; Growth Rate [2, 6]: -0.24; Growth Rate [2, 13]: -0.13; Growth Rate [3, 7]: -0.1
C[C@H](N)Cn1ccc2cc(F)c(Cl)cc21.O=C(O)/C=C/C(=O)O |  | 0.72 | 0.81 | -0.71 | 0.24 | 0.36 | 0.57 | 0.92 |  |  |  | 0.43 | 0.49 | 0.6 |  | 0.52 | 0.55 | 0.67 | 0.66 |  | Growth Rate [1, 12]: 0.6; Growth Rate [1, 7]: 0.9; Growth Rate [1, 8]: 0.79; Growth Rate [2, 5]: 0.68; Growth Rate [2, 13]: 0.91
CC(C)C[C@H](CO)Nc1nc(S[C@@H](C)c2ccccc2)nc2nc(N)sc12 [AZD-8797] | 0.26 |  |  |  | -1 |  | 0.93 |  | 0.79 |  | 0.99 | 0.37 | 0.47 | 0.54 | 0.7 |  | 0.77 | 0.82 | 0.93 |  | Growth Rate [1, 12]: 0.83; Growth Rate [2, 6]: 0.82
COc1ccc2c(c1OCc1ccccc1)C[C@@H](C(=O)O)N(C(=O)C(c1ccccc1)c1ccccc1)C2 [OLODANRIGAN] | 0.93 |  |  |  | -1 |  |  |  |  | 0.64 |  | 0.24 |  | 0.83 | 0.98 | 0.62 | 0.74 | 0.8 | 0.86 |  | Growth Rate [1, 9]: 0.27; Growth Rate [2, 6]: 0.89
N[C@@]1(C(=O)O)CO[C@H]2[C@H](C(=O)O)[C@H]21 [LY-379268] |  | 0.16 | 0.66 | -0.44 | -0.79 |  |  |  |  | 0.88 |  |  |  |  | 0.92 |  |  |  |  |  | Growth Rate [1, 9]: 0.44; Growth Rate [2, 5]: 0.99; Growth Rate [3, 4]: 0.68; Growth Rate [3, 9]: 0.79
CN1CCC(c2c[nH]c3ccc(O)cc23)CC1 | 0.18 |  |  | 0.81 | 0.6 |  | 0.97 |  |  |  | 0.98 | 0.11 |  |  |  |  |  | 0.98 |  | 0.89 | Growth Rate [1, 9]: -0.25; Growth Rate [3, 9]: 0.25; Growth Rate [3, 7]: 0.89
NC(=O)c1cc2c(-c3ccc(C(=O)NCc4ccnc(Cl)c4)s3)cccc2s1 |  | -0.97 | -0.62 |  | -0.83 | -0.27 | -0.23 | 0.07 | -0.08 | 0.1 | 0.13 | -0.81 | -0.77 | -0.39 | 0 | -0.01 | -0.09 | -0.18 | -0.15 | 0.01 | Growth Rate [1, 12]: -0.53; Growth Rate [1, 7]: -0.15; Growth Rate [1, 8]: 0.32; Growth Rate [2, 5]: 0.04; Growth Rate [2, 6]: 0.03; Growth Rate [2, 13]: -0.11; Growth Rate [3, 7]: -0.06
CCCCCCCCCCCCC/C=C/[C@@H](O)[C@@H](N)COP(=O)(O)O |  | -0.13 | 0.17 |  | 0.31 |  | 0.95 | 0.99 | 0.89 | -0.17 | 0.22 | -0.68 | 0.19 | 0.82 | 0.89 | -0.22 | 0.04 | 0.27 | 0.48 | 0.52 | Growth Rate [1, 12]: 0.53; Growth Rate [1, 8]: 0.63; Growth Rate [2, 13]: 0.88
COc1ncc2cc(C(=O)Nc3cc(C(=O)NCc4cccc(Cl)c4)ccc3Cl)c(=O)[nH]c2n1 | 0.34 | -0.3 | 0.41 |  |  | 0.36 |  | 0.51 | 0.69 | 0.93 | 0.83 | -0.08 | 0.48 | 0.76 | 0.67 | 0.48 | 0.55 | 0.64 | 0.66 | 0.93 | Growth Rate [1, 9]: 0.82; Growth Rate [1, 12]: 0.51; Growth Rate [2, 5]: 0.28; Growth Rate [2, 6]: 0.69; Growth Rate [2, 13]: 0.75; Growth Rate [3, 7]: 0.9
Cl.FC(F)(F)c1ccc(N2CCNCC2)nc1Cl | 0.87 |  |  |  | 0.39 | 0.77 | 0.84 | 0.93 | 0.96 | 0.92 | 0.95 | 0.27 | 0.59 | 0.59 | 0.87 | 0.75 | 0.89 | 0.79 | 0.75 | 0.82 | Growth Rate [1, 9]: 0.43; Growth Rate [1, 12]: 0.46; Growth Rate [2, 5]: 0.86; Growth Rate [2, 6]: 0.78; Growth Rate [3, 9]: 0.55; Growth Rate [3, 7]: 0.89
Cc1ccccc1N1CCN(S(=O)(=O)C[C@]23CC[C@H](C[C@@H]2NC(=O)[C@@H](N)CCS(C)(=O)=O)C3(C)C)CC1.Cl | 0.33 |  | 0.8 | -0.8 | -0.25 | 0.91 | 0.85 | 0.77 | 1 |  | 0.75 |  |  |  |  | 0.8 | 0.81 | 0.84 | 0.97 | 0.93 | Growth Rate [1, 9]: 0.56; Growth Rate [1, 7]: 0.91; Growth Rate [1, 8]: 0.76; Growth Rate [2, 13]: 0.89; Growth Rate [3, 4]: 0.81; Growth Rate [3, 9]: 0.34; Growth Rate [3, 7]: 0.92
COc1ccccc1N1CCN(CCCCNC(=O)c2ccc3ccccc3c2)CC1.Cl | 0.79 | 0.14 | -0.06 | 0.06 |  | 0.51 | 0.58 | 0.77 | 0.92 | 0.65 | 0.83 | -0.59 | 0.23 | -0.24 | 0.97 | 0.59 |  | 0.54 | 0.56 | 0.66 | Growth Rate [1, 9]: -0.14; Growth Rate [1, 7]: 0.09; Growth Rate [2, 5]: 0.78; Growth Rate [2, 6]: 0.96; Growth Rate [2, 13]: 0.81; Growth Rate [3, 9]: 0.97
